GI50 data for two compounds are collected here from US20230133958A1, “COMPOUNDS USEFUL IN MODULATING EGFR AND PI3K” (Mekanistic Therapeutics LLC, priority 2021, published 2023).

A value given as a limit tells only on which side of the number the result lay.

What all share (assay type): cell-based
In test [1] the test system is CCRF-CEM. The test is described as follows: NCI COMPARE panel (SRB growth inhibition), CCRF-CEM. The following applies: Homo sapiens, Leukemia, 48 h. On the procedure:
(§1) The human tumor cell lines of the cancer screening panel are grown in RPMI 1640 medium containing 5% fetal bovine serum and 2 mM L-glutamine. For a typical screening experiment, cells are inoculated into 96 well microtiter plates in 100 µL at plating densities ranging from 5,000 to 40,000 cells/well depending on the doubling time of individual cell lines. After cell inoculation, the microtiter plates are incubated at 37° C., 5% CO2, 95% air and 100% relative humidity for 24 h prior to addition of experimental drugs.
(§2) After 24 h, two plates of each cell line are fixed in situ with TCA, to represent a measurement of the cell population for each cell line at the time of drug addition (Tz). Experimental drugs are solubilized in dimethyl sulfoxide at 400-fold the desired final maximum test concentration and stored frozen prior to use. […]
(§3) Following drug addition, the plates are incubated for an additional 48 h at 37° C., 5 % CO2, 95% air, and 100% relative humidity. […] Bound stain is subsequently solubilized with 10 mM trizma base, and the absorbance is read on an automated plate reader at a wavelength of 515 nm. […] Using the seven absorbance measurements [time zero, (Tz), control growth, (C), and test growth in the presence of drug at the five concentration levels (Ti)], the percentage growth is calculated at each of the drug concentrations levels. Percentage growth inhibition is calculated as: […]

Test [2] has as its system SK-MEL-5. The test is described as follows: NCI COMPARE panel (SRB growth inhibition), SK-MEL-5. The following applies: Homo sapiens; Melanoma, SK-MEL-5, 48 h. How it is done: as §1, §2, §3
The test system of test [3] is LOX IMVI. Nature of the test: NCI COMPARE panel (SRB growth inhibition), LOX IMVI. The conditions noted are these: Homo sapiens, Melanoma, 48 h. How it is done:
as §1, §2, §3

The subject of test [4] is MDA-MB-435. Nature of the test: NCI COMPARE panel (SRB growth inhibition), MDA-MB-435. The conditions noted are these: Homo sapiens; Melanoma, MDA-MB-435, 48 h. How it is done: as §1, §2, §3
The subject of test [5] is SK-MEL-28. The test is described as follows: NCI COMPARE panel (SRB growth inhibition), SK-MEL-28. The following applies: Homo sapiens; Melanoma, SK-MEL-28, 48 h. How it is done:
as §1, §2, §3

Test [6] relates to SNB-19. Nature of the test: NCI COMPARE panel (SRB growth inhibition), SNB-19. The following applies: Homo sapiens; CNS Cancer, SNB-19, 48 h. On the procedure: as §1, §2, §3
The test system of test [7] is HL-60(TB). Nature of the test: NCI COMPARE panel (SRB growth inhibition), HL-60(TB). The conditions noted are these: Homo sapiens, Leukemia, 48 h. On the procedure: as §1, §2, §3
The test system of test [8] is ACHN. Nature of the test: NCI COMPARE panel (SRB growth inhibition), ACHN. The following applies: Homo sapiens, Renal Cancer, 48 h. How it is done: as §1, §2, §3

As a reminder, the GI50 is the concentration giving 50% growth inhibition.

Turning to `CS(=O)(=O)Nc1cc(-c2ccc3ncc(C#N)c(Nc4cccc(Cl)c4F)c3c2)cnc1Cl` [Compound 10, N-[2-chloro-5-[4-(3-chloro-2-fluoro-anilino)-3-cyano-6-quinolyl]-3-pyridyl]methanesulfonamide], the GI50 in test [1] is not above 75 nM; in test [2], not above 75 nM; in test [3], 75 to 125 nM; in test [4] it was 125 to 250 nM; in test [5], 125 to 250 nM; in test [6] it was 125 to 250 nM. Further, the 50% growth inhibitory concentration (GI50) in test [7] is not above 75 nM; in test [8] it was more than 250 nM.

Consider `CS(=O)(=O)Nc1cc(-c2ccc3ncnc(Nc4cccc(Cl)c4F)c3c2)cnc1Cl` [Compound 6, N-[2-chloro-5-[4-(3-chloro-2-fluoro-anilino)quinazolin-6-yl]-3-pyridyl] methanesulfonamide], for which the GI50 in test [1] was in the range of 125 to 250 nM; in test [2] it was 125 to 250 nM; in test [3], 125 to 250 nM; in test [4], 125 to 250 nM; in test [5], 75 to 125 nM; in test [6], 125 to 250 nM. For the same compound, the figures for the concentration for 50% growth inhibition (GI50) in test [7] and in test [8] were 75 to 125 nM and 125 to 250 nM, respectively.
